Results: article PMC4981717, “Lcp1 Is a Phosphotransferase Responsible for Ligating Arabinogalactan to Peptidoglycan in Mycobacterium tuberculosis” (mBio, 2016)
Values joined by “and” are separate entries in the source; they are usually repeats but may differ in a detail not shown here. Equal values may be shown once. “Also recorded” adds a separate entry of the source.

Molecular target: ^MtbLcp1 (Mycobacterium tuberculosis, UniProt P96872)
Assay: Intrinsic tryptophan fluorescence (ITF) ligand binding of linker unit analogues to recombinant ^MtbLcp1
Conditions: for Bmax: ITF saturation binding, change in fluorescence emission at λ = 341 nm; for Kd: ITF, single-site saturation model, 25°C, 0.026 µM ^MtbLcp1, λ = 341 nm, read-out: equilibrium dissociation constant, KD
Method: Intrinsic tryptophan fluorescence (ITF) ligand binding experiments of ^MtbLcp1 with saccharide ligands were conducted on a Hitachi F7000 fluorescence spectrophotometer with the temperature thermostatically regulated to 25°C. ^MtbLcp1 was diluted to 0.026 µM with dialysis buffer, and fluorescence spectra were measured at an excitation wavelength of 280 nm and emission wavelength of 300 to 400 nm with an excitation and emission slit width of 5 nm using a 500-µl crystal cuvette. ITF maximum (Femission^max) was recorded at λ = 341 nm, providing a basal Femission coordinate for the collection of subsequent ITF data. Increasing concentrations of ligands representing the linker unit (compounds 1 to 4) were added to the cuvette. The change in fluorescence emission (ΔFemission) was calculated by subtracting Femission (recorded 2 min after each ligand addition) from Femission^max. Changes of background fluorescence observed upon addition of equivalent volumes of dialysis buffer (the solvent in which compounds 1 to 4 were dissolved) were subtracted from the overall change in fluorescence, and the data were then plotted against ligand concentration, [L] (3 independent biological experiments). A plot of ΔFemission at λ = 341 nm versus [L] was fitted to a one-site specific binding equation using GraphPad Prism 5 software: ΔFemission = Fmax × [L]/(KD + [L]).

^MtbLcp1, sequence (P96872 entry or part of it): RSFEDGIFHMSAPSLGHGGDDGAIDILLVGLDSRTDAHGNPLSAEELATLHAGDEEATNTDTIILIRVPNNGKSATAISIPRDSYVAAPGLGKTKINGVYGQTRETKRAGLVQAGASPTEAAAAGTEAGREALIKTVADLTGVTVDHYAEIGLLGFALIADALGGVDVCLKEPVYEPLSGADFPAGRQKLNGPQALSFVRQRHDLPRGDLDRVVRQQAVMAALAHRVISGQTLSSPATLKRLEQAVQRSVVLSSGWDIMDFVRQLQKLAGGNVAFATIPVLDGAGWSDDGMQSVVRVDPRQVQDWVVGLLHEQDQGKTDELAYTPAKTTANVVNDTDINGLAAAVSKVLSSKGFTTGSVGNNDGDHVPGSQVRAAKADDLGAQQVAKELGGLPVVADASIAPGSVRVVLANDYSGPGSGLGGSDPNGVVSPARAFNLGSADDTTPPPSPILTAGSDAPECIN

CCCCCCCCO[C@H]1O[C@H](CO)[C@@H](O)[C@H](O[C@@H]2O[C@@H](C)[C@H](O)[C@@H](O)[C@H]2O)[C@H]1NC(C)=O [compound 1, octyl α-L-rhamnopyranosyl-(1→3)-2-acetamido-2-deoxy-α-D-glucopyranoside]
Bmax: 1448 | Kd: 57.7 µM

CCCCCCCCOC1OC(CO)C(O)C(OC2OC(C)C(OC3OC(C(CO)OC4OC(C(O)CO)C(O)C4O)C(O)C3O)C(O)C2O)C1NC(C)=O [compound 2, octyl-β-D-galactofuranosyl-(1→5)-β-D-galactofuranosyl-(1→4)-α-L-rhamnopyranosyl-(1→3)-2-acetamido-2-deoxy-α-D-glucopyranoside]
Bmax: 1585 | Kd: 5.13 µM | fold increase in affinity (tetrasaccharide ligand versus linker unit disaccharide (compound 1)): ~ 10 fold

CCCCCCCCOC1OC(CO)C(O)C(OC2OC(C)C(OC3OC(C(CO)OC4OC(C(O)COC5OC(C(O)CO)C(O)C5O)C(O)C4O)C(O)C3O)C(O)C2O)C1NC(C)=O [compound 3, octyl-β-D-galactofuranosyl-(1→6)-β-D-galactofuranosyl-(1→5)-β-D-galactofuranosyl-(1→4)-α-L-rhamnopyranosyl-(1→3)-2-acetamido-2-deoxy-α-D-glucopyranoside]
Bmax: 1498 | Kd: 20.4 µM | fold decrease in binding affinity (additional Galf residue, versus compound 2): 4 fold

CCCCCCCCOC1OC(C)C(OC2OC(C(O)CO)C(O)C2O)C(O)C1O [compound 4, D-Galf-β(1→4)-L-Rhap]
binding affinity toward ^MtbLcp1 in words (ITF assays, above background fluorescence): no significant binding affinity (above background); also recorded: no recordable affinity | Bmax: 177 and ~ 177.6 | Kd: 97.6 µM and ~97.6 µM
